Source: patent US9982232B2, “Methods of generating cells with multilineage potential” (NEWSOUTH INNOVATIONS PTY LIMITED, priority 2012, dated 2018)
Each block holds one molecule with its values, some of them ahead of it.

What was measured:
Type in all cases: cell-based, mouse
[1] = system: primary osteoblasts; assay: Inhibitor studies: PDGF-AB/AZA mediated oCFU-F production from primary osteoblasts; details: inhibitor in reprogramming cocktail from day 1 for 12 days
Protocol: (§1) In vitro differentiated bone, cartilage, fat and long-bone derived osteocytes were first cultured in MSC medium (αMEM+20% FCS+P/S/G) with or without 10 μM 5′Azacitidine (Tocris Biosciences) and with or without cytokine (50 or 100 ng/ml Pdgf-AA or Pdgf-BB or Pdgf-AB, 10 ng/ml bFgf, 20 ng/ml HGF, 10 ng/ml Igf-1 and 10 ng/ml Vegf for 2 days and then cultured in MSC media with or without cytokine for 10 days. In order to investigate the reprogramming cell signalling pathways, inhibitors were added to the reprogramming cocktail from day 1 and kept for 12 days. Media was refreshed every 3-4 days. At the end of day 12 cells were harvested for downstream analysis.
Active Pdgf isoforms stimulate cells by binding to and activating signalling by dimerization of two distinct, but structurally related, membrane bound receptor tyrosine kinases; Pdgf receptor-α (Pdgfrα) and Pdgf receptor-β (Pdgfrβ). Pdgf-BB has a greater binding affinity for Pdgfrβ but can also bind Pdgfrα whereas Pdgf-AA interacts only with Pdgfrα. Therefore, Pdgf-AA induces αα-receptor homodimers, PDGF-AB, both αα-receptor homodimers and αβ-receptor heterodimers and Pdgf-BB, all three dimeric combinations of α and β receptors, however in vivo binding of PDGF-AB is not known. Primary osteoblasts express Pdgfrβ but not Pdgfrα. […]

[2] = system: in vitro differentiated bone, cartilage and fat cells; assay: CFU-F colony formation and replating of in vitro derived bone, cartilage and fat cells cultured with cytokines with and without AZA; details: for colony forming potential (CFU-F): cells maintained 12 days in MSC culture medium with supplement
Protocol: as §1
CFU-Fs, oCFU-Fs, cCFU-Fs and aCFU-Fs were expanded in bulk culture after plating 10,000 cells per T75 flask. Resulting cells were split every 8 days. CFU-F and oCFU-F colonies were isolated individually using cloning cylinders (‘O” rings) (Sigma-Aldrich) and CFU-F clones (micro, small and large) and Osteocyte oCFU-F clones (micro, small and large) were pooled individually as micro (MC), small (SC) and large (LC) colonies and cultured first in T25 flask for 12 days and then from passage 2 onwards in T75 flask for 12 days. Cumulative cells numbers were calculated and plotted (log 10 scale). Micro, small and large colony's 2ry, 3ry and 4ry colony formation was evaluated by plating single cell from individual colonies into 96 well plates. In order to investigate differences in proliferative capacity of reprogrammed cells compared with primary CFU-Fs, cells were plated on RTCA resistor plate 96 (Roche Diagnostics) (200 cells/well) and recorded using XCELLigence (ACEA Biosciences) every 15 mins for 8 days.
To test whether lineage committed mesodermal cells could be induced to proliferate, bone marrow CFU-Fs (Colony Forming Units-Fibroblast) were harvested from mice, and following in vitro differentiation into bone, cartilage and fat cells, cultured them with different cytokines with and without AZA.
To assess and compare clonal vigour of replated cells, the inventors have developed a system to classify CFU-Fs based on cell number and size (Chong et al., 2011).

[3] = system: primary osteoblasts; assay: Surface Pdgf receptor expression and signalling protein levels in primary osteoblasts; details: within 48 hours of exposure
Protocol: Cell pellets were lysed in non-denaturing lysis buffer containing Complete Protease inhibitor cocktail (Roche) and PhosStop (Roche), followed by brief sonication using Bioruptor (Diagenode). The supernatant of the whole-cell extracts were loaded onto NuPage 4-12% Bis-Tri Gel (Life Technology) and transferred using iBlot Gel Transfer Kit (Nitrocellulose, Life Technology) according to the manufacturers instructions. Densitometry was performed using GE ImageQuant TL Software Version 7.0.
Active Pdgf isoforms stimulate cells by binding to and activating signalling by dimerization of two distinct, but structurally related, membrane bound receptor tyrosine kinases; Pdgf receptor-α (Pdgfrα) and Pdgf receptor-β (Pdgfrβ). Pdgf-BB has a greater binding affinity for Pdgfrβ but can also bind Pdgfrα whereas Pdgf-AA interacts only with Pdgfrα. Therefore, Pdgf-AA induces αα-receptor homodimers, PDGF-AB, both αα-receptor homodimers and αβ-receptor heterodimers and Pdgf-BB, all three dimeric combinations of α and β receptors, however in vivo binding of PDGF-AB is not known. Primary osteoblasts express Pdgfrβ but not Pdgfrα. […] These included expression of Pdgf receptors α and β, and components of the Jak/Stat and Jnk/c-Jun pathways but not the PI3kinase pathway. […]

[4] = system: osteocytes from long bones of Pdgfrα-H2B:GFP mice; assay: Reprogramming of primary osteocytes from Pdgfrα-H2B:GFP mice (CFU-F assays, flow cytometry)
Protocol: Osteocytes were isolated from long bones of either wild-type C57BL/6 or Pdgfra-nGFP mice. The mice were sacrificed at 8-16 weeks of age. Tibias and femurs were removed, cleaned of soft tissues and transferred to ice cold PBS. Bone marrow was flushed out with 2% FCS in PBS and bones were crushed and cut into ˜200 μm-400 μm pieces using a mortar and pestle and scissors. Bone fragments were transferred into 5 ml of collagenase (Type II, 2 mg/ml) in PBS and placed on a water bath shaker at 37° C. for 30 min twice. Supernatant was collected and collagenase was inactivated with 10 ml of 2% FCS and 5 mM EDTA in PBS. Cells were collected through 40 μm cell strainer. Cells were stained for Seal, CD51, CD31, Lin/CD45 and Pdgfrα. These cells were FACS sorted for Sca1^−/CD31^−/Pdgfra-nGFP^−/Pdgfra-Protein^−/CD51^+ osteocytes. FACS sorted osteocytes and bone fragments were cultured independently in complete culture medium (DMEM+P/S/G+100 ug/ml of ascorbate+10% FCS). Cells were cultured at 37° C. and 5% CO2 in the incubator for 8-10 days. […]
To evaluate how primary lineage committed cells respond to PDGF-AB/AZA, the inventors harvested Lin^−, CD45^−/Sca1^−/CD31^−/Pdgfrα-nGFP^−/Pdgfrα^−/CD51^+ osteocytes from long bones of Pdgfrα-H2B:GFP mice. […] The emergence of CFU-F capacity in reprogrammed osteocytes was evaluated by replating cells for CFU-F assays from the end of day 1 onwards (FIG. 2A).

Molecule: COc1cc2ncc(-c3ccccc3)nc2cc1OC [AG1296]
PDGF-AB/AZA mediated oCFU-F production from primary osteoblasts in presence of inhibitor [1]: abolished

surface Pdgfrα protein expression on primary osteoblasts [3]: Pdgfrα protein expression was evident
Molecule: Nc1ncn([C@@H]2O[C@H](CO)[C@@H](O)[C@H]2O)c(=O)n1 [AZA, Azacitidine, reference compound]
serial passaging / replating of colonies ([2]; bone, cartilage and fat cells): could not be replated at all
number of CFU-Fs generated at first passage ([2]; bone, cartilage and fat cells): also generated CFU-Fs at first passage

Molecule: Igf-1: insulin-like growth factor-1, tested with or without AZA
number of CFU-Fs generated at first passage ([2]; bone, cartilage and fat cells): substantially lower than with PDGF-AB
numbers of large colonies at first passage ([2]; bone, cartilage and fat cells): few large colonies
colony forming potential (CFU-F) [2]: either no or limited CFU-F potential

Molecule: Vegf
number of CFU-Fs generated at first passage ([2]; bone, cartilage and fat cells): substantially lower than with PDGF-AB
numbers of large colonies at first passage ([2]; bone, cartilage and fat cells): few large colonies
colony forming potential (CFU-F) [2]: either no or limited CFU-F potential

B1: bFgf: basic fibroblast growth factor, tested with or without AZA (protein, UniProt P15655 10-154, looked up)
Fibroblast growth factor 2: PALPEDGGAAFPPGHFKDPKRLYCKNGGFFLRIHPDGRVDGVREKSDPHVKLQLQAEERGVVSIKGVCANRYLAMKEDGRLLASKCVTEECFFFERLESNNYNTYRSRKYSSWYVALKRTGQYKLGSKTGPGQKAILFLPMSAKS
number of CFU-Fs generated at first passage ([2]; bone, cartilage and fat cells): substantially lower than with PDGF-AB
numbers of large colonies at first passage ([2]; bone, cartilage and fat cells): few large colonies
colony forming potential (CFU-F) [2]: either no or limited CFU-F potential

B2: Hgf: hepatocyte growth factor, tested with or without AZA (protein, UniProt Q08048 33-495; Q08048 496-728, looked up)
Hepatocyte growth factor …: QKKRRNTLHEFKKSAKTTLTKEDPLLKIKTKKVNSADECANRCIRNRGFTFTCKAFVFDKSRKRCYWYPFNSMSSGVKKGFGHEFDLYENKDYIRNCIIGKGGSYKGTVSITKSGIKCQPWNSMIPHEHSFLPSSYRGKDLQENYCRNPRGEEGGPWCFTSNPEVRYEVCDIPQCSEVECMTCNGESYRGPMDHTESGKTCQRWDQQTPHRHKFLPERYPDKGFDDNYCRNPDGKPRPWCYTLDPDTPWEYCAIKTCAHSAVNETDVPMETTECIQGQGEGYRGTSNTIWNGIPCQRWDSQYPHKHDITPENFKCKDLRENYCRNPDGAESPWCFTTDPNIRVGYCSQIPKCDVSSGQDCYRGNGKNYMGNLSKTRSGLTCSMWDKNMEDLHRHIFWEPDASKLNKNYCRNPDDDAHGPWCYTGNPLIPWDYCPISRCEGDTTPTIVNLDHPVISCAKTKQLR
Hepatocyte growth factor beta …: VVNGIPTQTTVGWMVSLKYRNKHICGGSLIKESWVLTARQCFPARNKDLKDYEAWLGIHDVHERGEEKRKQILNISQLVYGPEGSDLVLLKLARPAILDNFVSTIDLPSYGCTIPEKTTCSIYGWGYTGLINADGLLRVAHLYIMGNEKCSQHHQGKVTLNESELCAGAEKIGSGPCEGDYGGPLICEQHKMRMVLGVIVPGRGCAIPNRPGIFVRVAYYAKWIHKVILTYKL
number of CFU-Fs generated at first passage ([2]; bone, cartilage and fat cells): substantially lower than with PDGF-AB
numbers of large colonies at first passage ([2]; bone, cartilage and fat cells): few large colonies
colony forming potential (CFU-F) [2]: either no or limited CFU-F potential

B3: Pdgf-BB: platelet derived growth factor BB, tested with/without AZA (protein, UniProt P31240 82-190, looked up)
Platelet-derived growth …: SLGSLAAAEPAVIAECKTRTEVFQISRNLIDRTNANFLVWPPCVEVQRCSGCCNNRNVQCRASQVQMRPVQVRKIEIVRKKPIFKKATVTLEDHLACKCETIVTPRPVT
modifications: homodimer
notes: platelet derived growth factor BB, tested with/without AZA
passaging of CFU-F colonies from treated osteocytes ([4]; 12 days treatment): could not be passaged
CFU-F capacity of treated osteocytes ([4]; up to 12 days treatment): very limited CFU-F capacity
